In the oligonucleotide strings, read from the 5' end, every base follows the letter of its sugar. An asterisk marks phosphorothioate; unmarked linkages are phosphodiester. Other units and linkages are bracketed, terminal groups are in braces. A string of capitals states the bases alone. [5'S-Me-N] = (S)-5'-C-methyl nucleoside (N: the base); d = 2'-deoxy (DNA); r = 2'-OH (RNA)
Tests used:
DNA Pol-γ = target: T1, DNA Pol-γ (Homo sapiens, UniProt P54098); assay: Triphosphate incorporation assay by DNA Pol-γ; format: biochemical; settings: 100 nM template, 100 nM primer, 40 Units of enzyme, 1 mM or 100 μM dNTPs, 30 min, 37° C.
T1 sequence (P54098 1-1239): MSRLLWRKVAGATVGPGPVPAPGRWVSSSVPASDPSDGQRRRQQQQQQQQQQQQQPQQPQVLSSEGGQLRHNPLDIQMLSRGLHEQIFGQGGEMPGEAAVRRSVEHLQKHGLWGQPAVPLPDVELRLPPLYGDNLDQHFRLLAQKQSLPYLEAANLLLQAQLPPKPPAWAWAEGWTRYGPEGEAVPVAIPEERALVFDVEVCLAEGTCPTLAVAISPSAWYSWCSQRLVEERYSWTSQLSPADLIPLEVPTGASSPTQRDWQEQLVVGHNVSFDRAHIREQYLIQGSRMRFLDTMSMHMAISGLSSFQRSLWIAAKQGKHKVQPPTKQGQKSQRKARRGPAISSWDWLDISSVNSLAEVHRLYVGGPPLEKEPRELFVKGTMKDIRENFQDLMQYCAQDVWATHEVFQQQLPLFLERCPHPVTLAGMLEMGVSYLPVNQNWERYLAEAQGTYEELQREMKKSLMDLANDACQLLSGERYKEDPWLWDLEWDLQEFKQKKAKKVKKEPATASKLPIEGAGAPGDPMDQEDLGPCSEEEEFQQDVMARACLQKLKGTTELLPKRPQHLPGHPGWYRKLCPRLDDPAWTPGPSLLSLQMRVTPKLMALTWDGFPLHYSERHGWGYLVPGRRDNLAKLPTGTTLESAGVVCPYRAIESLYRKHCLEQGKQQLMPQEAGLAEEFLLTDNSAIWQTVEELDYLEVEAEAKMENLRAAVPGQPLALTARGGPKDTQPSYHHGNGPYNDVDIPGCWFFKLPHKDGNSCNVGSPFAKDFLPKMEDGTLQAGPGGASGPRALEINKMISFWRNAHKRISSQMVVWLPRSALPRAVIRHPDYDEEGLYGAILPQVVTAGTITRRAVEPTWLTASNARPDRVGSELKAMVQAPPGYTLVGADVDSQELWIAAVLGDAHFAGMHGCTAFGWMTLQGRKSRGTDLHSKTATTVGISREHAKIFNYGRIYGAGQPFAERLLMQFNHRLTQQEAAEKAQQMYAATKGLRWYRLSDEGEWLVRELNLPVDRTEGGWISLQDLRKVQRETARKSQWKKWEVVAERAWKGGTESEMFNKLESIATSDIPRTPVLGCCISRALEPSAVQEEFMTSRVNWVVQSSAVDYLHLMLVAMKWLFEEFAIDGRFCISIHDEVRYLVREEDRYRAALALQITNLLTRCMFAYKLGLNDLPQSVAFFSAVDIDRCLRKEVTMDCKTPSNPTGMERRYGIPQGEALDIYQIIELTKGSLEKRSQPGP
Method: (§1) 5′-(R)- and (S)—C-Me-guanosine triphosphate Evaluations: 5′-(R)- and (S)—C-Me-guanosine triphosphate were evaluated with Pol-RMT and DNA Pol-γ. Mitochondrial toxicity is a common feature with nucleoside analog drugs (liver/metabolic effects, myopathies, peripheral neuropathy). Replication of mitochondria occurs during all phases of cell cycle, including post-mitotic cells. Mito replication in post-mitotic cells becomes preferential consumer of endogenous nucleotide pools. Mitochondrial polymerases (pol-γ, Pol-RMT) have limited exonuclease (proofreading) capability. Alterations/effects to nuclear DNA more likely to manifest in other test systems. […] Analytical IEX-HPLC with fluorescence detection for optimal resolution of primer-extended products is used to detect—especially important in competition mixtures. This assays was applied for the assessment of incorporation efficiencies.
The reaction conditions were: Reaction: 100 nM template, 100 nM primer, 40 Units of enzyme and 1 mM or 100 μM dNTPs, 30 min, 37° C.; diluted to 5 nM primer and analyzed by FLD-IEX-HPLC (Ex: 437, Em: 483 nm).

Pol-RMT = Pol-RMT (Homo sapiens, UniProt O00411); assay: Triphosphate incorporation assay by Pol-RMT; format: biochemical; settings: 200 nM template, 50 nM primer, 300 nM enzyme, 1 mM or 100 μM NTPs, 30 min, 35° C.
Method: as §1
The reaction conditions were; 200 nM template, 50 nM primer, 300 nM enzyme and 1 mM or 100 μM NTPs, 30 min, 35° C.

phosphodiesterase II = assay: Stability toward 5′-specific exonuclease (phosphodiesterase II); format: in vitro ADME; settings: oligo 0.1 mg/mL, 50 mM NaOAc (pH 6.5), 10 mM MgCl2; for Half-lives (T1/2), ty2: Phosphodiesterase-II 500 mU/mL; for Half-lives (T1/2), t12: reduced Phosphodiesterase-II concentration 100 mU/mL
Method: Stability of modified oligonucleotides toward 3′- or 5′-specific exonucleases: Oligonucleotides were prepared in a final concentration of 0.1 mg/mL in either 50 mM Tris (pH 7.2), 10 mM MgCl2 or 50 mM sodium acetate (pH 6.5), 10 mM MgCl2 for assessing the stability towards 3′- or 5′-specific exonucleases, respectively. The exonuclease (150 mU/mL SVPDE for 3′-stability or 500 mU/mL phosphodiesterase II for 5′-stability) was added immediately prior to analysis via IEX HPLC (dionex DNAPac PA200, 4×250 mm) using a gradient of 37-52% mobile phase (1 M NaBr, 20 mM sodium phosphate, pH 11, 15% MeCN; stationary phase: 20 mM sodium phosphate, 15% MeCN, pH 11) over 7.5 min with a flow of 1 mL/min. Samples were analyzed at given time points for up to 24 h. The quantity of full length oligonucleotides was determined as the area under the curve at A260. Percent full length oligonucleotides was calculated by dividing by the area under the curve at t=0 and multiplying by 100. Activity of enzyme was verified for each experiment by including a oligodeoxythymidylate with a terminal phosphorothioate linkage (5′-T19·T (SEQ ID NO: 708) or 5′-T·T19 (SEQ ID NO: 708) for 3′- or 5′-exonuclease activity, respectively). Each aliquot of enzyme was thawed just prior to the experiment. The half-life was determined by fitting to first order kinetics.
5′-Nuclease Stability:_To evaluate the 5′-exonuclease stability of enantiomerically pure (R)- and (S)-5′-C-methyl (C5′-Me) Guanosine substituted nucleosides a dT20 template sequence (“dT20” disclosed as SEQ ID NO: 1) was modified at the 5′-end with one modified nucleotide via PO or PS linkages (Table 13). The structures of the compounds are shown below with guanosine for comparison.
A dT20 template (“dT20” disclosed as SEQ ID NO: 1) having 5′end dT with PS linkages and 5′end Guanosine (G) with either PO or PS linkages were used as the control. ONs were incubated with Phosphodiesterase-II (500 mU/mL), and the half-life (T½) of each modified ON was determined by HPLC-based quantification of the full-length ON as a function of time. The results are summarized in Table 13 and HPLC stability profiles are depicted in FIGS. 24A and 24B showing decay curve of dT20 (SEQ ID NO: 1) modified at the 5′ end with Guanosine and (R) or (S)-5′-C-methyl Guanosine (C5′-MeG) with PO or PS linkages upon incubation with 5′ exonucleases-phosphodiesterase-II as a function of time. FIG. 24A is for the following conditions: a) enzyme conc. 500 mU/mL, Oligo Conc. 0.1 mg/mL, 50 mM NaOAc (pH-6.5):10 Mm MgCl2. FIG. 24B is for the following conditions: enzyme conc. 100 mU/mL, Oligo Conc. 0.1 mg/mL, 50 mM NaOAc (pH-6.5):10 mM MgCl2. The percentage full length ON is calculated by dividing the area under the peak corresponding to full length ON at a given time point by the full length at t=0 and multiplied by 100.
Stability of modified oligonucleotides toward 3′- or 5′-specific exonucleases: Modified oligonucleotides were prepared in a final concentration of 0.1 mg/mL in either 300 mM Tris (pH 7.2), 60 mM MgCl2 or 300 mM sodium acetate (pH 6.5), 60 mM MgCl2 for assessing the stability towards 3′- or 5′-specific exonucleases, respectively. […] Samples were analyzed at given time points for up to 24 h. The quantity of full length oligonucleotides was determined as the area under the curve at A260. Percent full length oligonucleotides was calculated by dividing by the area under the curve at t=0 and multiplying by 100. […]

Chain of Pol-RMT (O00411 42-1230, species assumed): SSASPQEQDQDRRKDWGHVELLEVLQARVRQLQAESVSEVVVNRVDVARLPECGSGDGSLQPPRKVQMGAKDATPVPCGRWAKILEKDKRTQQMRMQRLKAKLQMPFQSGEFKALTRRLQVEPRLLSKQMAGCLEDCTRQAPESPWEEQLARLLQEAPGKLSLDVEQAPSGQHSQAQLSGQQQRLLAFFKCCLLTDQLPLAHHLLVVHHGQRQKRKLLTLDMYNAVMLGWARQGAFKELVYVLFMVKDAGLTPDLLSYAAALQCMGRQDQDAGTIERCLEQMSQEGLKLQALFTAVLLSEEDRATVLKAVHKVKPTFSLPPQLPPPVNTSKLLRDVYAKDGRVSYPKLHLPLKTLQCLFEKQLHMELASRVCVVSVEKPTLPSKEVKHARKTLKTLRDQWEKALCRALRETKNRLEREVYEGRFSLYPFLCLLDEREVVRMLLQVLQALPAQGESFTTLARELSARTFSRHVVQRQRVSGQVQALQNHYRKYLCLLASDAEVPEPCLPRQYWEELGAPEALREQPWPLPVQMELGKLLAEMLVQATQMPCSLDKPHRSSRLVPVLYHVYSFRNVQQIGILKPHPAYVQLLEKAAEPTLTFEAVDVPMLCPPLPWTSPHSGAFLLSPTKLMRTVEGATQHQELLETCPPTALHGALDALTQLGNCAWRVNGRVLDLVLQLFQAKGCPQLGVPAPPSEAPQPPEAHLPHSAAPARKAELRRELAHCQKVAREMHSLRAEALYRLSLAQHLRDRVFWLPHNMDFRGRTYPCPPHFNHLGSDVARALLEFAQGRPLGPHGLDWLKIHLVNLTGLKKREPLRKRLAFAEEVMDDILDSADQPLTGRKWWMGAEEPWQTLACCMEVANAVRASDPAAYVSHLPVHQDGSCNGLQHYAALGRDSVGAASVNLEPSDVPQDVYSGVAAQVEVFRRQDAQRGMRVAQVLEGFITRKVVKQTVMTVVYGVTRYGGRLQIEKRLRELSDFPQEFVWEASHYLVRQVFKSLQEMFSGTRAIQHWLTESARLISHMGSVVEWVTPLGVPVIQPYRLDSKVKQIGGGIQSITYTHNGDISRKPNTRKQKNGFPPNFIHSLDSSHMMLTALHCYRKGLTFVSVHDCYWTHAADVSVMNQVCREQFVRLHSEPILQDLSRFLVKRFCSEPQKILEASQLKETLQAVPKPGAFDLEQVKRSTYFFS

Molecule | incorporation by Pol-γ (DNA Pol-γ) | incorporation by Pol-RMT (Pol-RMT) | Half-lives (T1/2), ty2 (phosphodiesterase II) [h] | Half-lives (T1/2), t12 (phosphodiesterase II) [h]
C[C@@H](OP(=O)(O)OP(=O)(O)OP(=O)(O)O)[C@H]1O[C@@H](n2cnc3c(=O)[nH]c(N)nc32)[C@H](O)[C@@H]1O [5′-(R)—C-Me-GTP, 5′-(R)—C-Me-guanosine triphosphate] | Neither 5′-(S) nor (R)—C-Me-Gtp incorporate in Pol-γ at high concentrations | appears not incorporate in Pol-RMT | – | –
C[C@H](OP(=O)(O)OP(=O)(O)OP(=O)(O)O)[C@H]1O[C@@H](n2cnc3c(=O)[nH]c(N)nc32)[C@H](O)[C@@H]1O [5′-(S)—C-Me-G triphosphate (GTP), 5′-(S)—C-Me-guanosine triphosphate] | Neither 5′-(S) nor (R)—C-Me-Gtp incorporate in Pol-γ at high concentrations | incorporates in Pol-RMT at high concentrations | – | –
GpodT19: G(dT)19, 5′ guanosine, PO linkage (DNA rGdTdTdTdTdTdTdTdTdTdTdTdTdTdTdTdTdTdTdT) | – | – | <1 | <1
GpsdT19: Gs(dT)19, 5′ guanosine, PS linkage (DNA rG*dTdTdTdTdTdTdTdTdTdTdTdTdTdTdTdTdTdTdT) | – | – | 41 | –
SpodT19: (G5m)(dT)19, 5′-end (S)-5′-C-methyl guanosine, PO linkage ([5'S-Me-G]dTdTdTdTdTdTdTdTdTdTdTdTdTdTdTdTdTdTdT) | – | – | <1 | <1

— US20250207131A1, “MODIFIED RNA AGENTS WITH REDUCED OFF-TARGET EFFECT” (Alnylam Pharmaceuticals, Inc., priority 2018, published 2025)
